Earlier results as cited in PMC5409479 (The Journal of Biological Chemistry, 2017).

Assays:
[1] = test system: GCGR, mutation of Trp-36 to Ala; details: GCGR Trp-36 to Ala; significantly increased expression
Excerpt: (§1) This could also move residues Thr-35, Trp-39, Tyr-88, Leu-89, Pro-90, and Trp-91 away from the peptide interface observed in the crystal structure, while bringing Trp-33 and Arg-40 into closer proxim ...

[2] = test system: GLP-1R, mutation of Glu-125 to Ala; parameters: method as in PMID 19815559, PMID 21868452, PMID 20529866
[3] = test system: GLP-1R, mutation of Trp-39 to Ala or Phe; details: expression comparable with wild type
Excerpt: as §1

[4] = test system: GLP-1R, mutation of Arg-40 to Ala
Excerpt: as §1

GLP-1R L89A = test system: GLP-1R L89A; parameters: method as in PMID 19861722

exendin(9–39)
affinity and agonism (in words) (GLP-1R): a high affinity antagonist

GLP-1(9–36)NH2
affinity and agonism (in words) (GLP-1R): a low affinity partial agonist

GLP-1(7–36)NH2: a high affinity agonist
affinity and agonism (in words) (GLP-1R): a high affinity agonist

GCG: glucagon
GCG binding (in words) [1]: no detectable binding of GCG

GLP-1: cognate ligand of GLP-1R
GLP-1 binding affinity or function (in words) [2]: did not significantly impact GLP-1 binding affinity or function | GLP-1 binding (in words) [3]: loss of detectable GLP-1 binding | binding affinity of GLP-1 (in words) [4]: small decrease in binding affinity of GLP-1 | GLP-1 peptide binding (in words) (GLP-1R L89A): abolishing GLP-1 peptide binding
